# Measurements as given in article PMC7026418, “The kinase polypharmacology landscape of clinical PARP inhibitors” (Scientific Reports, 2020).
# Where two headings read alike, the source gives them in different places.
# Experiments:
# Assay in all cases: biochemical
# Set-up in all cases: DiscoveRx KINOMEscan active site-directed competition binding; percent of control kinase bound to immobilised ligand
# FLT3(D835V) = target: T1, FLT3(D835V) (Homo sapiens, UniProt P36888, D835V)
# T1 sequence (P36888 1-993 D835V): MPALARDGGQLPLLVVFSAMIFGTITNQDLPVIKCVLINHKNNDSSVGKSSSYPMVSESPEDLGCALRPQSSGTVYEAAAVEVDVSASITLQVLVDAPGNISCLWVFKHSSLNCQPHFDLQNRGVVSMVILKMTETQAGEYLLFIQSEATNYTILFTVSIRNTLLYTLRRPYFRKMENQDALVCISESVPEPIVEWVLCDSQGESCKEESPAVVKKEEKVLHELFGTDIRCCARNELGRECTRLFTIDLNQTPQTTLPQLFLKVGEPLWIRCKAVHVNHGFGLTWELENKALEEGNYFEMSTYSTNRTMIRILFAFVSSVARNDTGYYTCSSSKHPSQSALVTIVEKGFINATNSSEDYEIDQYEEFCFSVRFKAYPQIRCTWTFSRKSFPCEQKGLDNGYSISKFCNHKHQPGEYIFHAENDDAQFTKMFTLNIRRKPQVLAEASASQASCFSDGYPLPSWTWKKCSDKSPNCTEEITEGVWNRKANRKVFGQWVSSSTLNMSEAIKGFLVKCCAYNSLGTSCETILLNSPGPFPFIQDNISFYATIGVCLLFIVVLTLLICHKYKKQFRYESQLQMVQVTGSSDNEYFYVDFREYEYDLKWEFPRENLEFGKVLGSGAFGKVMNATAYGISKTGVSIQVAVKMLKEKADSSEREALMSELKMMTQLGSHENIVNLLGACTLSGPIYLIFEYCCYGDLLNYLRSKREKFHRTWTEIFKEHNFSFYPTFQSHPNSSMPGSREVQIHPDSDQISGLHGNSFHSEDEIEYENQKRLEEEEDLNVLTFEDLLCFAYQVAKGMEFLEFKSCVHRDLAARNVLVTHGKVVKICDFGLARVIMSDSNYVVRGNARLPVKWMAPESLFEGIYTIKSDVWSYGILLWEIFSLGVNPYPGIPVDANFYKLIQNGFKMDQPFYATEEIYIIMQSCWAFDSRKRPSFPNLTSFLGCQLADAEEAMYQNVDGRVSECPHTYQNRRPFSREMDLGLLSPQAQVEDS
# LRRK2 = LRRK2 (Homo sapiens, UniProt Q5S007)
# Chain of LRRK2 (Q5S007 whole entry): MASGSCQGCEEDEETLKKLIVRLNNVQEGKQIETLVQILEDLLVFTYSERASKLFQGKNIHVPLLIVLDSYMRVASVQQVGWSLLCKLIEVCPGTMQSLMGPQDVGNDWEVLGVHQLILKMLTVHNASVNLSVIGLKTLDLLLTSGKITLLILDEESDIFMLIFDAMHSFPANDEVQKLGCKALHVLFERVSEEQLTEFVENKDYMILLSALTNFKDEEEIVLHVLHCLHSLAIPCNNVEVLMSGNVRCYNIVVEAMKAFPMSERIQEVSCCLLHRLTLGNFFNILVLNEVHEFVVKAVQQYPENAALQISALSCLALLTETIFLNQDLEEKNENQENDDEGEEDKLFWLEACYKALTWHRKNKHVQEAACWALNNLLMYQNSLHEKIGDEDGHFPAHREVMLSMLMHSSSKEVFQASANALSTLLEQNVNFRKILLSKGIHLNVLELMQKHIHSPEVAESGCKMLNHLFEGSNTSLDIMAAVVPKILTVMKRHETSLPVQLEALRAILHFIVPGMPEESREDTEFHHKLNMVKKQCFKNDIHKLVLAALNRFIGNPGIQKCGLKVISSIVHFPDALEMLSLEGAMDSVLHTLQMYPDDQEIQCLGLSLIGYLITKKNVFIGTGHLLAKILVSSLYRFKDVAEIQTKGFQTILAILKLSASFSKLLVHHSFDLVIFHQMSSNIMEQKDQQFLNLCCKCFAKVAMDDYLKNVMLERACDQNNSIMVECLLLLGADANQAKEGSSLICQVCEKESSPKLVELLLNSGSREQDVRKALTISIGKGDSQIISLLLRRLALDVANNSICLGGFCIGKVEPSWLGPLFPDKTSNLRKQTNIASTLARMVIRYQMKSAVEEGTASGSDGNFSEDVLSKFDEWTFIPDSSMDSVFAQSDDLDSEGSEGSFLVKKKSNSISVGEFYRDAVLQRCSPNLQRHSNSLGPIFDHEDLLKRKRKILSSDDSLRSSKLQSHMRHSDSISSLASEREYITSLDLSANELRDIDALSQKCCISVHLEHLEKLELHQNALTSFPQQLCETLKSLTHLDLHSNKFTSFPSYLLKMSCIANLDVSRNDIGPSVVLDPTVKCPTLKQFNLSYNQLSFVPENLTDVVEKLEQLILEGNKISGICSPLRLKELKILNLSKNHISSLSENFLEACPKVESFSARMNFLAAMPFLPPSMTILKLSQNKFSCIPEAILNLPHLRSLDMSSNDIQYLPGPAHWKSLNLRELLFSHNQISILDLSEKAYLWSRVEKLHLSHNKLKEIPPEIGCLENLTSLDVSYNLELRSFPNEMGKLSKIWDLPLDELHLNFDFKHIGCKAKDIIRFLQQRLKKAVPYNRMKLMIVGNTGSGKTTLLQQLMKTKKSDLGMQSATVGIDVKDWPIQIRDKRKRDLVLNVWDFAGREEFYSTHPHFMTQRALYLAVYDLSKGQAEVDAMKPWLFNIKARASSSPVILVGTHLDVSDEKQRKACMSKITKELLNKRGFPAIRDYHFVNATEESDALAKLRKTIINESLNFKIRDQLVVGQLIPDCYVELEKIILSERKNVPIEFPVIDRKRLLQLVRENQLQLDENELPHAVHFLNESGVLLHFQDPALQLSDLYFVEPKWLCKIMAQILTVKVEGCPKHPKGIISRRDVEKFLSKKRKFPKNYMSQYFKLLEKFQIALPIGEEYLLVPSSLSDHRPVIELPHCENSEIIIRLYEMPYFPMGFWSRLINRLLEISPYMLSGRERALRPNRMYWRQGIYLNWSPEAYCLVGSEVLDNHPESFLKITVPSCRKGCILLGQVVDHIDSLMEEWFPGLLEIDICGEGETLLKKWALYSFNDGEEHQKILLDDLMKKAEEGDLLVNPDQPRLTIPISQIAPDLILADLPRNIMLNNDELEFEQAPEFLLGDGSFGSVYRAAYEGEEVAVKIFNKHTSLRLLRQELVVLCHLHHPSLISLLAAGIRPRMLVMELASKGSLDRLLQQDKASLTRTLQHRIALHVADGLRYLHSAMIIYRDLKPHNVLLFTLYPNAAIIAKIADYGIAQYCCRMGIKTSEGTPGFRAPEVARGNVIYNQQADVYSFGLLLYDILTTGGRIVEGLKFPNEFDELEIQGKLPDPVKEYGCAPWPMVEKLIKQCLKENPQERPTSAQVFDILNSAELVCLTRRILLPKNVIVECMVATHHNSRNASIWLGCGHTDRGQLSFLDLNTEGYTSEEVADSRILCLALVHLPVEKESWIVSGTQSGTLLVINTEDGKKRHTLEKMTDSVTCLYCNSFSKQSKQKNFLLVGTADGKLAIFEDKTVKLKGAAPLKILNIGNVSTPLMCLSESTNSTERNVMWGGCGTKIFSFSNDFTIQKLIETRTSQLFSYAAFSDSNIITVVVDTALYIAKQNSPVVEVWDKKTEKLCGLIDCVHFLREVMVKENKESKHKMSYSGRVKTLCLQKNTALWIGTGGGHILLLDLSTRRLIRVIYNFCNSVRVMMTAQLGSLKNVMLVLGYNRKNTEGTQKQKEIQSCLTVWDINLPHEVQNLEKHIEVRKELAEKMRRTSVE
# MEK3 = target: T2, MEK3 (Homo sapiens, UniProt P46734)
# T2 construct: gene MAP2K3
# T2 sequence (P46734 1-347): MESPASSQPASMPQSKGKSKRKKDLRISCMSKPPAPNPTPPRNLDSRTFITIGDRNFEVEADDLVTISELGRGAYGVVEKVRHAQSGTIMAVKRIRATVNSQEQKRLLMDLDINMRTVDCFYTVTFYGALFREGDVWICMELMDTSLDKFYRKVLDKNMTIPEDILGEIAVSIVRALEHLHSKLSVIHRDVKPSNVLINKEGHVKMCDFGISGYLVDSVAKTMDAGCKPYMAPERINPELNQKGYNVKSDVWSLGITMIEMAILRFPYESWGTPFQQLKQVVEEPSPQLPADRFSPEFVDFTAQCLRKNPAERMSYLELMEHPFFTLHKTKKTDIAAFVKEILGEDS
# PAK6 = PAK6 (Homo sapiens, UniProt Q9NQU5)
# Chain of PAK6 (Q9NQU5 whole entry): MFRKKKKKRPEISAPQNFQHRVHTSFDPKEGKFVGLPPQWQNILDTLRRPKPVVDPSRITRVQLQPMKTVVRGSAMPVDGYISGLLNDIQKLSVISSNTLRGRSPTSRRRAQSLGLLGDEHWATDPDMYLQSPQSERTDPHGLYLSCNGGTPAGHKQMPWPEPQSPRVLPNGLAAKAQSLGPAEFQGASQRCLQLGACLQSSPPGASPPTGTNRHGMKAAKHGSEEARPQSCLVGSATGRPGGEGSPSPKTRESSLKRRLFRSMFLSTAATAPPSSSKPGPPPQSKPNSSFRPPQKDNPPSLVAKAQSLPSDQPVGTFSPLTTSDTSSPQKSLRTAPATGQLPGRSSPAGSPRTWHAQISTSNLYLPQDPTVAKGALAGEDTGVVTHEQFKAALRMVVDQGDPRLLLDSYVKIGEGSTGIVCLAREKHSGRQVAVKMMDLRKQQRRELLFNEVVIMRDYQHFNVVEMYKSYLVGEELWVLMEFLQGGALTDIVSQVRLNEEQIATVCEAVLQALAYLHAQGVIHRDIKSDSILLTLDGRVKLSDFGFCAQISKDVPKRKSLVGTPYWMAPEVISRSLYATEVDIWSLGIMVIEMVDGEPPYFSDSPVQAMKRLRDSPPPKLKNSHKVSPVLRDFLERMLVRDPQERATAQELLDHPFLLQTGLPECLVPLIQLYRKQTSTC
# TAOK2 = target: T3, TAOK2 (Homo sapiens, UniProt Q9UL54)
# T3 sequence (Q9UL54 1-1235): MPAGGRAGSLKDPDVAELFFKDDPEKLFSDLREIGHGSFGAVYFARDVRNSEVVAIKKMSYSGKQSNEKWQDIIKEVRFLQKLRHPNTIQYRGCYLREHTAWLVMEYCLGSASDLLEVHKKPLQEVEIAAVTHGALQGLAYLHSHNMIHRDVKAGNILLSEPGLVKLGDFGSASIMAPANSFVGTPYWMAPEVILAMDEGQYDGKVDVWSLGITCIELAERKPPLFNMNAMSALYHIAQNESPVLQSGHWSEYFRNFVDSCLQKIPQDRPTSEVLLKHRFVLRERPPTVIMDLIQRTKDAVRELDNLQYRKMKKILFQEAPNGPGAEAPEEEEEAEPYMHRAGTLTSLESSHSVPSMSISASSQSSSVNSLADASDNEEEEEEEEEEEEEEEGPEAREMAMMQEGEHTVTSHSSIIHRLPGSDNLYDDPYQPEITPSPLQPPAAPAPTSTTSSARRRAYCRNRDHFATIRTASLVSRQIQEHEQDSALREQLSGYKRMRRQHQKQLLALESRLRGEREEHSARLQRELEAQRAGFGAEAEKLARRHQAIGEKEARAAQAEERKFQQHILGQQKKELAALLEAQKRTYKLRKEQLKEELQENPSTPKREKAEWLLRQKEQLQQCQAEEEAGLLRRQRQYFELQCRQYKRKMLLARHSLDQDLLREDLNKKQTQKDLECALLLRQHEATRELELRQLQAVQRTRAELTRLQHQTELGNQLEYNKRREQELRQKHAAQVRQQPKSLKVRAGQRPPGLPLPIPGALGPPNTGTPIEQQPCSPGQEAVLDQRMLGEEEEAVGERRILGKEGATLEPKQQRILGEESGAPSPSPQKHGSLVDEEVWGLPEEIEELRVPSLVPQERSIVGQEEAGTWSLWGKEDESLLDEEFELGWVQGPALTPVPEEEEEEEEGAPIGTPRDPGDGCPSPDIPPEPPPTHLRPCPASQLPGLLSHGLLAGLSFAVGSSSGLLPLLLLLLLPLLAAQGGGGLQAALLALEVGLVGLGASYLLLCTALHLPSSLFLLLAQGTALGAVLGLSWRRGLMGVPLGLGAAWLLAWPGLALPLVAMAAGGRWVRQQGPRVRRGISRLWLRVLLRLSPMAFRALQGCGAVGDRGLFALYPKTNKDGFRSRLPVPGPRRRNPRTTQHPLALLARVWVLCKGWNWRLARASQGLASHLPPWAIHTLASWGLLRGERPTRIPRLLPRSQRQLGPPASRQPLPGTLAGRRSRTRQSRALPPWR
# [1] = read-out: Talazoparib (BMN 673) / %Ctrl @ 10000nM
# [2] = read-out: Olaparib / %Ctrl @ 10000nM
# [3] = read-out: Rucaparib / %Ctrl @ 10000nM, binding competition, % of control
# [4] = read-out: Niraparib (MK-4827) / %Ctrl @ 10000nM
smiles,measurement,setting,value
Cn1ncnc1[C@H]1c2n[nH]c(=O)c3cc(F)cc(c23)N[C@@H]1c1ccc(F)cc1 [Talazoparib],percent of control binding at 10 µM,FLT3(D835V); [1],100%
same,percent of control binding at 10 µM,LRRK2; [1],100%
same,percent of control binding at 10 µM,MEK3; [1],65%
same,percent of control binding at 10 µM,PAK6; [1],90%
same,percent of control binding at 10 µM,TAOK2; [1],100%
O=C(c1cc(Cc2n[nH]c(=O)c3ccccc23)ccc1F)N1CCN(C(=O)C2CC2)CC1 [Olaparib],percent of control binding at 10 µM,FLT3(D835V); [2],100%
same,percent of control binding at 10 µM,LRRK2; [2],100%
same,percent of control binding at 10 µM,MEK3; [2],85%
same,percent of control binding at 10 µM,PAK6; [2],87%
same,percent of control binding at 10 µM,TAOK2; [2],93%
CNCc1ccc(-c2[nH]c3cc(F)cc4c3c2CCNC4=O)cc1 [Rucaparib],Rucaparib / %Ctrl @ 10000nM,"FLT3(D835V); binding competition, % of control",15%
same,percent of control binding at 10 µM,LRRK2; [3],78%
same,percent of control binding at 10 µM,MEK3; [3],83%
same,percent of control binding at 10 µM,PAK6; [3],96%
same,percent of control binding at 10 µM,TAOK2; [3],71%
NC(=O)c1cccc2cn(-c3ccc([C@@H]4CCCNC4)cc3)nc12 [Niraparib],percent of control binding at 10 µM,FLT3(D835V); [4],83%
same,percent of control binding at 10 µM,LRRK2; [4],96%
same,percent of control binding at 10 µM,MEK3; [4],80%
same,percent of control binding at 10 µM,PAK6; [4],93%
same,percent of control binding at 10 µM,TAOK2; [4],100%
